Test results taken from US20040132996A1, “Method for preparation of ceftiofur and salts thereof” (LUPIN LIMITED, priority 2002, published 2004).

Assay: Storage stability of the product at 40° ± 2° C. for 90 days (drop in assay)
Assay type: physicochemical
Conditions: for Storage Stability: assay after storage: after 90 days at 40° ± 2° C.; for Storage Stability: assay at start: before storage at 40° ± 2° C.; for storage stability (statement in words): product obtained by the process of the invention

Row | SMILES | Storage Stability (90 days at 40° ± 2° C.) | Storage Stability: assay after storage | Storage Stability: assay at start | storage stability (statement in words)
1 | CO/N=C(\C(=O)N[C@@H]1C(=O)N2C(C(=O)O)=C(CSC(=O)c3ccco3)CS[C@H]12)c1csc(N)n1 [ceftiofur (Ia)] | Stable for 90 days at 40° ± 2 °C with a | 92% | 97% | high storage stability
2 | CO/N=C(\C(=O)N[C@@H]1C(=O)N2C(C(=O)[O-])=C(CSC(=O)c3ccco3)CS[C@H]12)c1csc(N)n1.[Na+] [ceftiofur sodium (Ib)] |  | 87% | 94% | high storage stability
